The values below come from PubChem BioAssay AID1745844 (Carcinogenic Potency Database (CPDB), 2022).

The data set relates to rodent lifetime carcinogenesis bioassay, tumor incidence TD50. Put plainly: chronic cancer bioassays in animals – CPDB, compiled studies (AID 1745844).

Activity calls are given as the source filed them. The rule behind the calls is not given here.

On to `CN(N=O)C(=O)Nc1nc2ccccc2s1`, for which the TD50 reads like this: (rat, strain Wistar, both sexes, by gavage, site: forestomach, lesion: papilloma, dosed 51 weeks, study length 58 weeks) 3.75 mg/kg/day; (rat, strain Wistar, both sexes, by gavage, site: forestomach, lesion: several types, types named in the paper, dosed 51 weeks, study length 58 weeks) 1.13 mg/kg/day; (rat, strain Wistar, both sexes, by gavage, site: forestomach, lesion: squamous-cell carcinoma, dosed 51 weeks, study length 58 weeks) 1.48 mg/kg/day; (rat, strain Wistar, both sexes, by gavage, site: liver, lesion: several types, types named in the paper, dosed 51 weeks, study length 58 weeks) 11.3 mg/kg/day.
On to `CN(C)c1ccc(N=Nc2ccccc2)cc1`, for which the TD50 is 17.2 mg/kg/day (monkey, strain Rhesus [Macaca mulatta], both sexes, in feed, site: any site (literature study), lesion: malignant tumor, dosed 258 weeks, study length 1019 weeks); 4.84 mg/kg/day (monkey, strain Rhesus [Macaca mulatta], both sexes, in feed, site: lung, lesion: alveolar/bronchiolar carcinoma, dosed 258 weeks, study length 1019 weeks); 4.9 mg/kg/day (rat, strain Wistar albino, females, in feed, site: liver, lesion: bile duct tumor, dosed 33 weeks, study length 56 weeks); 3.31 mg/kg/day (rat, strain Wistar albino, females, in feed, site: liver, lesion: hepatoma, dosed 33 weeks, study length 56 weeks); 7.42 mg/kg/day (rat, strain Wistar albino, females, in feed, site: liver, lesion: liver-cell carcinoma, dosed 33 weeks, study length 56 weeks).
With `CN(CCO)N=O`, the TD50 is, setting by setting: (rat, strain Fischer 344, males, by gavage, site: liver, lesion: hemangiosarcoma, dosed 69 weeks, study length 69 weeks) 8.97 mg/kg/day; (rat, strain Fischer 344, males, by gavage, site: liver, lesion: hepatocellular carcinoma, dosed 69 weeks, study length 69 weeks) 1.29 mg/kg/day; (rat, strain Fischer 344, males, by gavage, site: nasal cavity, lesion: squamous-cell carcinoma, dosed 69 weeks, study length 69 weeks) 2.06 mg/kg/day; (rat, strain Fischer 344, males, by gavage, site: nasal cavity, lesion: squamous-cell papilloma, dosed 69 weeks, study length 69 weeks) 8.97 mg/kg/day.
For `[N-]=[N+]=[N-]`, the TD50 is 3.01 mg/kg/day (rat, strain Charles River CD (Sprague-Dawley), females, in feed, site: mammary gland, lesion: one or several types, types not named, dosed 78 weeks, study length 104 weeks); 16.1 mg/kg/day (inactive) (rat, strain Charles River CD (Sprague-Dawley), females, in feed, site: pituitary gland, lesion: chromophobe adenoma, dosed 78 weeks, study length 104 weeks); 19.1 mg/kg/day (inactive) (rat, strain Fischer 344, females, by gavage, site: any site (literature study), lesion: several types, types named in the paper, dosed 103 weeks, study length 104 weeks); 8.26 mg/kg/day (rat, strain Fischer 344, males, by gavage, site: any site (literature study), lesion: several types, types named in the paper, dosed 103 weeks, study length 104 weeks); 3.79 mg/kg/day (inactive) (rat, strain Fischer 344, males, by gavage, site: testis, lesion: interstitial-cell adenoma, bilateral + interstitial-cell adenoma, dosed 103 weeks, study length 104 weeks). Besides, the carcinogen call (rat, strain Charles River CD (Sprague-Dawley), males, in feed, site: pituitary gland, lesion: chromophobe adenoma, dosed 78 weeks, study length 104 weeks) was “negative (inactive)”.
On to `C=C(C)C#N`, for which the carcinogen call runs as follows: (mouse, strain B6C3F1, females, by gavage, site: any site (literature study), lesion: several types, types named in the paper, dosed 104 weeks, study length 104 weeks) “negative (inactive)”; (mouse, strain B6C3F1, males, by gavage, site: any site (literature study), lesion: several types, types named in the paper, dosed 104 weeks, study length 104 weeks) “negative (inactive)”. The TD50 was 178 mg/kg/day (mouse, strain B6C3F1, females, by gavage, site: lung, lesion: alveolar/bronchiolar adenoma + alveolar/bronchiolar carcinoma, dosed 104 weeks, study length 104 weeks); 160 mg/kg/day (mouse, strain B6C3F1, males, by gavage, site: lung, lesion: alveolar/bronchiolar adenoma + alveolar/bronchiolar carcinoma, dosed 104 weeks, study length 104 weeks); 323 mg/kg/day (inactive) (rat, strain Fischer 344, females, by gavage, site: any site (literature study), lesion: several types, types named in the paper, dosed 104 weeks, study length 104 weeks); 205 mg/kg/day (inactive) (rat, strain Fischer 344, males, by gavage, site: subcutaneous tissue, lesion: fibrosarcoma + fibrous histiocytoma + sarcoma, dosed 104 weeks, study length 104 weeks).

In general, TD50 refers to the 50% point of the dose-response relation for the toxic effect studied.
